{
  "source": "paper PMC5654082",
  "about": "(Malaria Journal, 2017)",
  "biological_target": "T1, human OCT2 (Homo sapiens, UniProt O15244)",
  "T1 construct": "host or cells: HEK293, baculovirus transduction (CMV promoter), transient",
  "T1 sequence (O15244 1-555)": "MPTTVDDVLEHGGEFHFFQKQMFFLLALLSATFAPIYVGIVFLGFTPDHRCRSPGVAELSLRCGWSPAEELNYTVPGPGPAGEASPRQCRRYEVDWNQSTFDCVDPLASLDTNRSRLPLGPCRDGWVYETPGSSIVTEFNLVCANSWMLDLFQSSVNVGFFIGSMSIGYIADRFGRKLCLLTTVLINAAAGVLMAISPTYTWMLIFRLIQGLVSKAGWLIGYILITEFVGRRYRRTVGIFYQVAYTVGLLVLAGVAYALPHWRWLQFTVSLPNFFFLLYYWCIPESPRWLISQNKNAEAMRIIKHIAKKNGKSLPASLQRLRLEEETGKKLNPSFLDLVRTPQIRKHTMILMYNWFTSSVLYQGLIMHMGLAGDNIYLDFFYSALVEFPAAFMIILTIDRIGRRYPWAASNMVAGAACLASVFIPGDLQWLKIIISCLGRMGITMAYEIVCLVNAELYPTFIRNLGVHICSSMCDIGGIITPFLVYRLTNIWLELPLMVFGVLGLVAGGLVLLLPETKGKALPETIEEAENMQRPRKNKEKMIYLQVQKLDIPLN",
  "assay": "OCT2-mediated cellular import in transduced HEK293 cells (LC-MS/MS)",
  "assay_type": "cell-based",
  "experimental": "HEK293 cells were modified to transiently express (a combination of) human OCT1, OCT2, MATE1, MATE2-K, or eYFP. Briefly, cDNA of the respective genes was cloned downstream of a CMV promoter into a baculovirus, of which passage three was used to transduce HEK293 cells. These cells were seeded in poly-D-lysine coated 24- or 96-wells plates and grown in a 37 °C incubator at 5% CO2. Growth was initiated at ~ 25% confluency using 375 or 125 μL cell and complete medium (DMEM + GlutaMAX™-I supplemented with 10% fetal bovine serum) suspension per well, respectively. After 24 h, cells were transduced with 30 µL virus (10 µL virus + 20 µL complete medium in case of 96-wells plates) or 2 × 15 µL virus for cells that required simultaneous expression of two transporters. Finally, 195 µL sodium butyrate (45 µL for 96-wells plates) was added to a final concentration of 2 mM to enhance protein expression.\nHEK293 cells were seeded in 24-wells poly-D-lysine coated plates and transduced the subsequent day with OCT1 or OCT2 as described above. Three days following transduction, OCT1- or OCT2-mediated uptake of ten anti-malarials (AMO, ART, ATO, CQ, DHA, LUM, MQ, PQ, PG, and QN) was performed. […] Following a second wash with 400 µL ice-cold HBSS-HEPES buffer, cells were lysed with 200 µL 50% (v/v) MeOH and 0.1% (v/v) formic acid (HCOOH) in water and samples were sent for quantification by mass spectrometry analysis (see “LC–MS/MS quantification of anti-malarials” section). […]\nThe affinity (KM) and maximum transport rate (Vmax) for OCT1 and OCT2 of PG were determined by analysing concentration-dependent uptake data from three independent experiments.\nImport and export of PG and cycloguanil (CG) was assessed by single and double transduced HEK293 cells. […] Following the same procedure as for the cellular import assay described above, the import of 100 µM PG and CG was measured after 5 min incubation and data was plotted as mean pmol/mg/min ± SEM. […] Significant reduction in uptake (i.e. export by MATEs) was determined using ln transformation and a one-way repeated measures ANOVA with Dunnet’s post test. […]",
  "note": "Where a name gives a salt, the structure may show the parent alone.",
  "data": [
    {"smiles": "CC1(C)N=C(N)N=C(N)N1c1ccc(Cl)cc1", "note": "[Cycloguanil]", "values": [
      {"measurement": "Uptake by OCT2", "setting": "100 µM, 5 min", "value": "118 ± 18", "unit": "pmol/mg/min"}
    ]},
    {"smiles": "[H]/N=C(\\N/C(=N/[H])Nc1ccc(Cl)cc1)NC(C)C", "note": "[Proguanil, proguanil hydrochloride]", "values": [
      {"measurement": "Uptake by OCT2, percentage of mock-transduced control", "setting": "10 µM, 15 min, 37 °C", "value": "207 ± 17", "unit": "%"}
    ]}
  ]
}
